“And” between values parts separate entries of the source, which are not always exact repeats. Equal entries are not always repeated.
Test system: 695427-040-R-J1-PDC complex spheroid viability
Test: Anticancer human tumor 695427-040-R-J1-PDC patient-derived colon adenocarcinoma cell line growth inhibition [RAS]
Settings: for viability, T/C: stronger effect = lower value
From the text: RAS pathway inhibitors in Combinations in Complex Spheroids
A high-throughput screen of multi-cell type tumor spheroids was designed to identify active combinations of RAS pathway inhibitors and targeted small molecules. Complex spheroids include a stromal component modeled by human endothelial cells (HUVEC) and fibroblasts modeled by human mesenchymal stem cells (MSCs). The concentration ranges selected for each drug and investigational agent were based upon clinically achievable concentrations if the clinical Cmax of the agent was known.
Compounds. The drugs and investigational agents: abemaciclib (NSC768073), cobimetinib (NSC768068), divarasib (GDC6063, NSC841802), docetaxel (NSC628503), GDC-1971 (RLY-1971, NSC841576), gemcitabine (NSC613327), inavolisib (NSC800729), ipatasertib (NSC767898), KB-0742 (NSC834161), MRTX-1133 (NSC836407), osimertinib (NSC779217), RMC-4630 (NSC839698), RMC-6236 (NSC851965), RMC-6291 (NSC852671), Ro-3306 (NSC812927), sapanisertib (NSC764658), SN-38 (NSC673596), staurosporine (NSC755774), SY5609 (NSC837396), and tovorafenib (DAY101, NSC766906), were obtained from the National Cancer Institute (NCI) Developmental Therapeutics Program Chemical Repository. The FDA-approved anticancer drug set is available from the NCI Developmental Therapeutics Program. […] The stock solutions were prepared in dimethyl sulfoxide (DMSO, Sigma-Aldrich, St. Louis, MO, cat. D2650) at 800-fold the tested concentration and stored at -70 degrees C prior to their use. All drugs and investigational agents were tested over a range starting from a high concentration at or near the clinical Cmax and decreasing in half-log increments. If the clinical Cmax for an agent had not been determined, the highest concentration tested was 10 microM.
Cell Culture. All cells were maintained in an incubator at 37 degrees C and 5% CO2 with 95% humidity. The PDC lines were cultured according to standard operating procedures established by the NCI PDMR. All PDCs were thawed and cultured in Matrigel-coated flasks prepared with a working solution of 1X Ham's F-12 nutrient mix, without supplementation (Invitrogen, Waltham, MA, cat. 11765054), 100 U/mL penicillin-streptomycin (Invitrogen, cat. 15140122), and 2.5% Matrigel (Corning Inc., Corning, NY, cat. 354248) for the first three passages. The 362531-283-R-J2-PDC and 782815-120-R-J1-PDC lines were cultured in 6C/Colon 1B media, which includes advanced DMEM/F-12 (Thermo Fisher Scientific, cat. 12634028), 10 mM HEPES (Thermo Fisher Scientific, cat. 15630080), 1X GlutaMAX supplement (Thermo Fisher Scientific, cat. 35050061), 0.1 mg/mL primocin (InvivoGen, San Diego, CA, cat. ant-pm-2), 10% defined fetal bovine serum, heat inactivated (HyClone Laboratories Inc., Logan, UT, cat. SH30070.03HI), 50% L-WRN conditioned media (ATCC, cat. CRL-3276), 1.25 mM N-Acetyl-L-cysteine (Sigma-Aldrich, cat. A9165), 10 mM nicotinamide (Sigma-Aldrich, cat. N0636), 1X B-27 supplement (Thermo Fisher Scientific, cat. 17504044), 1X N-2 supplement (Thermo Fisher Scientific, cat. 17502048), 50 ng/mL human EGF (Thermo Fisher Scientific, cat. PHG0311), and 10 microM Y-27632 dihydrochloride (Tocris Bioscience, cat. 1254). The K12877-001-R-J1-PDC line was cultured in 6I media, which includes all 6C/Colon 1B media plus 10 ng/mL human FGF-10 (PeproTech, cat. 100-26), 1 ng/mL human FGF-2 (PeproTech, cat. 100-18B), 1 µM prostaglandin E2 (Tocris Bioscience, cat. 2296), […] hydrocortisone (Sigma-Aldrich, cat. H4001), and […] bovine insulin (Sigma-Aldrich, cat. I6634). The K86415-001-R-J1-PDC line was cultured in 6D media, which includes all 6C/Colon 1B media components minus the L-WRN conditioned media. The 485176-168-R4-J1-PDC was cultured in PANC media, which includes all 6C/Colon 1B media plus 100 ng/mL human FGF-10 (PeproTech, cat. 100-26), 500 nM SB-431542 (Selleckchem, cat. S1067), and 10 nM gastrin (Tocris Bioscience, cat. 3006). […]
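Also: viability read after seven days of drug exposure.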
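For viability, T/C in this document: 100% = DMSO vehicle control viability.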

Compound | viability, T/C (compound 0.00316 µM) | viability, T/C (compound 0.01 µM) | viability, T/C (compound 0.0316 µM) | viability, T/C (compound 0.1 µM) | viability, T/C (compound 0.316 µM) | IC50 (curve of compound) | viability, T/C (compound 0.000949 µM) | viability, T/C (compound 0.003 µM) | viability, T/C (compound 0.00949 µM) | viability, T/C (compound 0.03 µM) | viability, T/C (compound 0.0949 µM) | viability, T/C (compound 0.3 µM) | IC50 (compound alone, run of 05/20/2024) | viability, T/C (compound 1 µM) | viability, T/C (compound 3.16 µM) | viability, T/C (compound 10 µM)
CCN1CCN(Cc2ccc(Nc3ncc(F)c(-c4cc(F)c5nc(C)n(C(C)C)c5c4)n3)nc2)CC1 | 102% [middle of 4 runs] | 84.3% [middle of 4 runs] | 92.2% [middle of 4 runs] | 102% [middle of 4 runs] | 98.7% [middle of 4 runs] | > 1000 nM |  |  |  |  |  |  |  |  |  | 
CCc1c2c(nc3ccc(O)cc13)-c1cc3c(c(=O)n1C2)COC(=O)[C@]3(O)CC |  |  |  |  |  | 114 nM [middle of 4 runs] | 91.9% [middle of 4 runs] | 96.8% [middle of 4 runs] | 86.8% [middle of 4 runs] | 73.4% [middle of 4 runs] | 52.8% [middle of 4 runs] | 34.5% [middle of 4 runs] |  |  |  | 
CCn1c(-c2cc(N3CCN(C)CC3)cnc2C(C)OC)c2c3cc(ccc31)-c1csc(n1)CC(NC(=O)C1CC1C)C(=O)N1CCCC(N1)C(=O)OCC(C)(C)C2 (centres undefined) |  |  |  |  |  |  |  | 92.1% [middle of 8 runs] | 78.3% [middle of 8 runs] | 60.2% [middle of 8 runs] | 51.3% [middle of 8 runs] | 43% [middle of 8 runs] |  |  |  | 
CCn1c(-c2cccnc2C(C)OC)c2c3cc(ccc31)N1CCOC(CC(NC(=O)C(C(C)C)N(C)C(=O)C3(F)CCN(C(=O)C#CC(C)(C)N(C)C)CC3)C(=O)N3CCCC(N3)C(=O)OCC(C)(C)C2)C1 (centres undefined) |  |  |  |  |  |  | 94% [middle of 8 runs] |  |  | 95.8% [middle of 8 runs] | 102% [middle of 8 runs] |  | > 300 nM |  |  | 
C[C@@H](NC(=O)c1ncnc(N)c1Cl)c1ncc(C(=O)Nc2cc(C(F)(F)F)c(Cl)cn2)s1 |  |  | 105% [middle of 4 runs] | 108% [middle of 4 runs] | 115% and 99.1% and 103% (2×) | > 10000 nM |  |  |  |  |  |  |  | 113% [middle of 4 runs] | 99.6% [middle of 4 runs] | 73.2% (2×) and 69.3% and 73.6%
Cc1nc(N2CCC3(CC2)COC(C)C3N)c(CO)nc1Sc1ccnc(N)c1Cl (centres undefined) |  |  | 87% [middle of 4 runs] | 85.2% [middle of 4 runs] | 73.3% [middle of 4 runs] | > 10000 nM |  |  |  |  |  |  |  | 76.3% [middle of 4 runs] | 65.7% [middle of 4 runs] | 59.8% [middle of 4 runs]
NC1c2ccccc2OC12CCN(c1cnc3c(N4CCCc5ncccc54)n[nH]c3n1)CC2 (centres undefined) |  |  | 78.6% [middle of 4 runs] | 64.9% [middle of 4 runs] | 64.5% [middle of 4 runs] |  |  |  |  |  |  |  |  | 55.7% [middle of 4 runs] | 49.4% [middle of 4 runs] | 43.5% [middle of 4 runs]
Nc1ccn(C2OC(CO)C(O)C2(F)F)c(=O)n1 (centres undefined) | 92.8% [middle of 4 runs] |  | 78.1% [middle of 4 runs] | 78.2% [middle of 4 runs] | 72% [middle of 4 runs] | > 1000 nM |  |  |  |  |  |  |  | 65% [middle of 4 runs] |  | 
O=C(c1ccc(F)c(F)c1Nc1ccc(I)cc1F)N1CC(O)([C@@H]2CCCCN2)C1 | 96.2% [middle of 4 runs] |  | 63.3% [middle of 4 runs] | 50.1% [middle of 4 runs] | 23.3% [middle of 4 runs] | 77.1 nM [middle of 4 runs] |  |  |  |  |  |  |  | 6.95% [middle of 4 runs] |  | 

Reference: PubChem BioAssay AID2060888 (Molecular Pharmacology Branch, DTP, NCI, 2025)
